# Measurements: the supplement of paper PMC10307832
# How the values were obtained:
# Assay in all cases: relative viability (nuclei count vs DMSO), 5 days (fraction); higher = more cells survive
# Carboplatin + Bortezomib = compound: C1CC(C1)(C(=O)O)C(=O)O.[NH2-].[NH2-].[Pt+2] [Carboplatin] + CC(C)C[C@H](NC(=O)[C@H](Cc1ccccc1)NC(=O)c1cnccn1)B(O)O [Bortezomib] (partner 0.002 µM)
# Summary of the method: (§1)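 Five library-drug doses in √10 steps were combined with a fixed anchor-drug dose, or a single drug was given alone, by pin tool to lung cancer cell lines in 1536-well plates the day after seeding. Nuclei were stained and counted after 5 days. Relative viability is the nuclei count in treated wells over that in vehicle wells, taken as the median of duplicate plates.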
# GSK126 + Vorinostat = compound: CC[C@H](C)N1C=C(C2=C(C=C(C=C21)C3=CN=C(C=C3)N4CCNCC4)C(=O)NCC5=C(C=C(NC5=O)C)C)C [GSK126] + O=C(CCCCCCC(=O)Nc1ccccc1)NO [Vorinostat] (partner 1 µM)
# Summary of the method: as §1
# MLN4924 + Tozasertib = compound: NS(=O)(=O)OC[C@@H]1C[C@@H](n2ccc3c(N[C@H]4CCc5ccccc54)ncnc32)C[C@@H]1O [MLN4924] + Cc1cc(Nc2cc(N3CCN(C)CC3)nc(Sc3ccc(NC(=O)C4CC4)cc3)n2)n[nH]1 [Tozasertib] (partner 0.1 µM)
# Summary of the method: as §1
# MLN4924 + Alpelisib = compound: NS(=O)(=O)OC[C@@H]1C[C@@H](n2ccc3c(N[C@H]4CCc5ccccc54)ncnc32)C[C@@H]1O [MLN4924] + Cc1nc(NC(=O)N2CCC[C@H]2C(N)=O)sc1-c1ccnc(C(C)(C)C(F)(F)F)c1 [Alpelisib] (partner 2 µM)
# Summary of the method: as §1
cell line,measurement,setting,value
UMC-11,relative viability,Carboplatin + Bortezomib; first compound 0.08 µM,0.941
same,relative viability,Carboplatin + Bortezomib; first compound 0.253 µM,0.904
same,relative viability,Carboplatin + Bortezomib; first compound 0.8 µM,0.675
same,relative viability,Carboplatin + Bortezomib; first compound 2.53 µM,0.622
same,relative viability,Carboplatin + Bortezomib; first compound 8 µM,0.382
same,relative viability,GSK126 + Vorinostat; first compound 0.08 µM,0.409
same,relative viability,GSK126 + Vorinostat; first compound 0.253 µM,0.381
same,relative viability,GSK126 + Vorinostat; first compound 0.8 µM,0.356
same,relative viability,GSK126 + Vorinostat; first compound 2.53 µM,0.459
same,relative viability,GSK126 + Vorinostat; first compound 8 µM,0.341
same,relative viability,MLN4924 + Tozasertib; first compound 0.04 µM,0.205
same,relative viability,MLN4924 + Tozasertib; first compound 0.1265 µM,0.212
same,relative viability,MLN4924 + Tozasertib; first compound 0.4 µM,0.215
same,relative viability,MLN4924 + Tozasertib; first compound 1.265 µM,0.19
same,relative viability,MLN4924 + Tozasertib; first compound 4 µM,0.184
same,relative viability,MLN4924 + Alpelisib; first compound 0.04 µM,0.59
same,relative viability,MLN4924 + Alpelisib; first compound 0.1265 µM,0.249
same,relative viability,MLN4924 + Alpelisib; first compound 0.4 µM,0.254
same,relative viability,MLN4924 + Alpelisib; first compound 1.265 µM,0.128
same,relative viability,MLN4924 + Alpelisib; first compound 4 µM,0.13
